Consider one compound from publication PMC6021502, “Cannabigerol Action at Cannabinoid CB1 and CB2 Receptors and at CB1–CB2 Heteroreceptor Complexes” (Frontiers in Pharmacology, 2018).

The target in assay [1] is CB1R. The note with it: cited from earlier work.
Assay [2] addresses T1, CB2R in a CB1–CB2 receptor heteromer context (Homo sapiens, UniProt P34972).
T1 construct: host or cells: HEK-293T, transient co-transfection (PEI)
Kind of assay: Homogeneous HTRF competition binding in living HEK-293T cells expressing SNAP-CB2R and CB1R. The note with it: 20 nM fluorescent ligand, read-out: Ki, HTRF competition of fluorophore-conjugated CM-157 in the presence of CB1R. (Time-resolved FRET reads energy transfer from a long-lived donor to a nearby acceptor.)

In assay [3] the target is T2, SNAP-CB2R (Homo sapiens, UniProt P34972).
T2 construct: host or cells: HEK-293T, transient transfection (PEI)
T2 sequence (P34972 whole entry): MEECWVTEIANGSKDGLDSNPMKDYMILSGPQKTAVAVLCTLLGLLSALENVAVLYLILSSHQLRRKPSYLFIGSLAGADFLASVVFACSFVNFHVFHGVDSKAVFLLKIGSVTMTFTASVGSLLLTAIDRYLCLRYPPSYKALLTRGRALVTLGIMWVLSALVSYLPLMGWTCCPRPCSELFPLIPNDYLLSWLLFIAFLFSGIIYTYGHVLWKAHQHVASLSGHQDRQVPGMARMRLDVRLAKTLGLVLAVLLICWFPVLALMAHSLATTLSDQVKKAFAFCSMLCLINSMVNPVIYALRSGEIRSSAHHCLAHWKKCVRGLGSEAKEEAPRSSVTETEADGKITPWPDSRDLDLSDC
Description: Homogeneous HTRF competition binding in living HEK-293T cells (fluorophore-conjugated CM-157). The note with it: living HEK-293T cells expressing SNAP-CB2R, 20 nM fluorescent ligand.

Assay [4] has as its target T3, human CB2 receptor (Homo sapiens, UniProt P34972).
T3 construct: expressed in transfected cells; membranes
Kind of assay: [3H]-CP-55940 competition binding, CHO membranes. The note with it: radioligand 0.3 nM [3H]-CP-55940, CHO membranes.

The subject of assay [5] is T4, CB1R and CB2R (CB1–CB2 heteroreceptor complexes).
T4 construct: expressed in transfected cells; host or cells: HEK-293T, transient co-transfection (PEI)
Kind of assay: cAMP determination in HEK-293T cells co-expressing both receptors. It counts as cell-based, human. The protocol: (§1) HEK-293T cells were grown in DMEM medium (Gibco, Paisley, Scotland, United Kingdom) supplemented with 2 mM L-glutamine, 100 U/mL penicillin/streptomycin, MEM Non-Essential Amino Acids Solution (1/100) and 5% (v/v) heat inactivated Foetal Bovine Serum (FBS) (Invitrogen, Paisley, Scotland, United Kingdom). […] Cells were transiently transfected with the PEI (Polyethylenimine, Sigma, St. Louis, MO, United States) method as previously described ([Medrano et al., 2017]; [Navarro et al., 2018b]) and used for functional assays 48 h later (unless otherwise stated).
Signaling experiments have been performed as previously described ([Navarro et al., 2010], [2016], [2018b]; [Hinz et al., 2018]). Two hours before initiating the experiment, HEK-293T cell-culture medium was replaced by serum-starved DMEM medium. Then, cells were detached, resuspended in growing medium containing 50 μM zardaverine and placed in 384-well microplates (2,500 cells/well). Cells were pretreated (15 min) with CBG -or vehicle- and stimulated with agonists (15 min) before adding 0.5 μM forskolin or vehicle. Readings were performed after 15 min incubation at 25°C. […] Fluorescence at 665 nm was analyzed in a PHERAstar Flagship microplate reader equipped with an HTRF optical module (BMG Lab Technologies, Offenburg, Germany).

Assay [6] concerns macrophages. Also noted: method as in Giacoppo et al., 2017. To be noted: in vitro; blocked by AM630, not by SR141716A; ref Giacoppo et al., 2017; cited from earlier work.
For assay [7], the system named is T5, CB2R.
T5 construct: expressed in transfected cells; host or cells: HEK-293T, transient transfection (PEI)
Description: Overall signalling profile (cAMP, MAPK, β-arrestin, DMR) in HEK-293T cells. The note with it: HEK-293T cells expressing CB2R. It counts as cell-based, human. The protocol:
as §1
(§2) Signaling experiments have been performed as previously described ([Navarro et al., 2010], [2016], [2018b]; [Hinz et al., 2018]). […] Readings were performed after 15 min incubation at 25°C. […] Fluorescence at 665 nm was analyzed in a PHERAstar Flagship microplate reader equipped with an HTRF optical module (BMG Lab Technologies, Offenburg, Germany).
(§3) To determine ERK1/2 phosphorylation, 50,000 HEK-293T cells/well were plated in transparent Deltalab 96-well microplates and kept at the incubator for 24 h. […] 10 μL of each supernatant were placed in white ProxiPlate 384-well microplates and ERK 1/2 phosphorylation was determined using AlphaScreen®SureFire® kit (Perkin Elmer) following the instructions of the supplier and using an EnSpire® Multimode Plate Reader (PerkinElmer, Waltham, MA, United States). […]

Assay [8] concerns T6, CB1R.
T6 construct: expressed in transfected cells; host or cells: HEK-293T, transient transfection (PEI)
Described as above. To be noted: HEK-293T cells expressing CB1R. Format: cell-based, human. The protocol: as §1, §2, §3

For assay [9], the system named is TRPV1. More on the design: method as in De Petrocellis et al., 2011. To be noted: ref De Petrocellis et al., 2011; read-out: EC50, agonist of TRPV1; cited from earlier work.
The subject of assay [10] is macrophages. Also noted: method as in Borrelli et al., 2013. The note with it: ref Borrelli et al., 2013; cited from earlier work.
For assay [11], the target named is T7, human CB1 receptor (Homo sapiens, UniProt P21554).
T7 construct: expressed in transfected cells; membranes
T7 sequence (P21554 whole entry): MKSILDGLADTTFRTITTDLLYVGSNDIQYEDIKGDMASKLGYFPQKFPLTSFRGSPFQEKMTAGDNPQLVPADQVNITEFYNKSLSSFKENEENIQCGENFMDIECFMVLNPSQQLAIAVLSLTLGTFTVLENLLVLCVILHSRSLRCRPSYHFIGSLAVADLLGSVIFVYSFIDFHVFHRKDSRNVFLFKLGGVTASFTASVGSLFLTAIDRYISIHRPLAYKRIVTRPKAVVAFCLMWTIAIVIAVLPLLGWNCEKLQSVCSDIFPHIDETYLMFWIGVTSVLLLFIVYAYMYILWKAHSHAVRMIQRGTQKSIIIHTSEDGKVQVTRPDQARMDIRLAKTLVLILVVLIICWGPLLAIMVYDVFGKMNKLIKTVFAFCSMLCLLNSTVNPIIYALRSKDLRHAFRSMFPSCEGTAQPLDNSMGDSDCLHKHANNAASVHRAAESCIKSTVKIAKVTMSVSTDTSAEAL
Description: biochemical. It counts as binding.

Assay [12] deals with T4, CB1R and CB2R (CB1–CB2 heteroreceptor complexes). Kind of assay: Label-free dynamic mass redistribution (DMR) in HEK-293T cells co-expressing both receptors. Format: cell-based, human. The protocol: as §1
Cell mass redistribution induced upon receptor activation was detected by illuminating the underside of a biosensor with polychromatic light and measuring the changes in the wavelength of the reflected monochromatic light. The magnitude of this wavelength shift (in picometers) is directly proportional to the amount of DMR. […] Hereafter, the sensor plate was scanned and a baseline optical signature was recorded for 10 min before adding 10 μL of CBG for 30 min followed by the addition of 10 μL of specific agonists; all test compounds were dissolved in assay buffer. The cell signaling signature was determined using an EnSpire® Multimode Plate Reader (PerkinElmer, Waltham, MA, United States) by a label-free technology. Then, DMR responses were monitored for at least 5,000 s. Results were analyzed using EnSpire Workstation Software v 4.10.

For assay [13], the system named is T5, CB2R. Description: Label-free dynamic mass redistribution (DMR) in HEK-293T cells. Format: cell-based, human. The protocol: as §1
(§4) Cell mass redistribution induced upon receptor activation was detected by illuminating the underside of a biosensor with polychromatic light and measuring the changes in the wavelength of the reflected monochromatic light. The magnitude of this wavelength shift (in picometers) is directly proportional to the amount of DMR. HEK-293T cells were seeded in 384-well sensor microplates to obtain 70–80% confluent monolayers constituted by approximately 10,000 cells per well. Previous to the assay, cells were washed twice with assay buffer (HBSS with 20 mM HEPES, pH 7.15) and incubated for 2 h with assay-buffer containing 0.1% DMSO (24°C, 30 μL/well). Hereafter, the sensor plate was scanned and a baseline optical signature was recorded for 10 min before adding 10 μL of CBG for 30 min followed by the addition of 10 μL of specific agonists; all test compounds were dissolved in assay buffer. The cell signaling signature was determined using an EnSpire® Multimode Plate Reader (PerkinElmer, Waltham, MA, United States) by a label-free technology. Then, DMR responses were monitored for at least 5,000 s. Results were analyzed using EnSpire Workstation Software v 4.10.

Assay [14] deals with T6, CB1R. The description is as above. It counts as cell-based, human. The protocol: as §1, §4
Where [15] appears, read: 100 nM CBG pretreatment, cells co-expressing CB1R and CB2R.
The mark [16] stands for this setting: CBG alone, dose-effect, cells expressing CB1R and CB2R.

As a reminder, the Ki is a dissociation constant, usually derived from enzyme kinetics or from competition with a known ligand. What is called EC50 is the concentration giving half of the maximal effect.

“Also recorded” adds a separate entry of the source. Where two headings read alike, the source gives them in different places.

T1 sequence (P34972 whole entry): as the sequence (P34972 whole entry) above
T1 sequence (P21554 whole entry partner): as the sequence (P21554 whole entry) above
T3 sequence (P34972 whole entry): as the sequence (P34972 whole entry) above

As for `CCCCCc1cc(O)c(C/C=C(\C)CCC=C(C)C)c(O)c1` [CBG, cannabigerol], the Ki in assay [1] (membranes from mice brain, preliminary results, ref Gauson et al., 2007, Pertwee, 2008) is 300 to 500 nM; in assay [1] (mouse brain membranes, ref Cascio et al., 2010) it was 381 nM; in assay [2], 56 nM; in assay [3], 152 nM; in assay [4] it was 1220 nM; in assay [11] it was more than 30000 nM. Further, the “Effect on AEA, ACEA and/or JWH133 actions in cAMP-related assays” value in [5] (setting [15]) is “significant effects, always reducing the effect of the agonists”. Also, the “Effect on cAMP level” value in assay [5] (setting [16]) is given as “additive”. Also, in [6], the “Protection of macrophages against oxidative stress” value is given as “protection of macrophages against oxidative stress”. Moreover, the “Pharmacological profile at CB2R” value in assay [7] is reported as “partial agonist of the CB2R”. In addition, the “Pharmacological profile at CB1R” value in assay [8] was “poor agonist of CB1R”. Moreover, the EC50 in [9] was 1300 nM. In addition, in [10], the “Nitrite release from macrophages after LPS stimulation” value was “reduce”. Also, the “Displacement of [3H]-WIN-55,212-2 from CB1R” value in assay [11] was “not able to displace the radioligand; also recorded: unable to compete”. For the same compound, the “Effect on agonist actions on DMR read-outs” value in assay [12] (setting [15]) was “negative modulation of the ACEA effect on ERK1/2 phosphorylation and DMR, and of the AEA effect on DMR read-outs”. The DMR signal result in assay [12] (setting [16]) was “additive”; in assay [13] (CBG alone, 1 nM to 10 μM, CB2R-expressing cells) it was “small and similar to that exerted in CB1R-expressing cells”; in assay [14] (CBG alone, 1 nM to 10 μM, CB1R-expressing cells) it was “slight effect”. The “Effect on AEA and JWH133 effects on label-free DMR” value in assay [13] (100 nM or 1 μM CBG pretreatment, 100 nM AEA or JWH133, CB2R) was “reduced the effects of AEA and JWH133”. The “Effect on agonist-induced DMR” value in assay [14] (100 nM or 1 μM CBG, 100 nM AEA or ACEA, CB1R) was “reduced the effect of the agonists”.
